Structures are written as SMILES.

From patent US7803600B2 (priority 2002, dated 2010) come the findings set out here.

For experiment [1], the system named is K562/C1,000+ cells. Briefly: Cell proliferation assay (MTS/PMS), K562/C1,000+ P-glycoprotein overexpressing. The experiment is classed as cell-based, human. The protocol: (§1) The activity of the compound of formula (I) on P-glycoprotein- or Multidrug Resistant Protein-expressing tumour cell lines and respective parental cells, K562/C1,000+ and K562A7, COR-L23/R and COR-L23, was compared to that of a known substrate for P-glycoprotein/Multidrug Resistant Protein, adriamycin.
(§2) All samples tested were dissolved in DMSO and further dilutions (typically 1:1,000) were made in culture medium, with final DMSO concentrations never exceeding 0.1% (v/v) in cell proliferation assays. MTT [3-(4,5-dimethylthiazol-2-yl)-2,5-diphenyltetrazolium bromide], MTS [3-(4,5-dimethylthiazol-2-yl)-5-(3-carboxymethoxyphenyl)-2-(4-sulfophenyl)-2H-tetrazolium inner salt] and PMS [phenazine methosulfate] were dissolved in phosphate-buffered saline (PBS).
(§3) MTT and MTS are both tetrazolium salts widely used in cell proliferation and toxicity tests. Upon entry in a viable cell, these tetrazolium salts are (bio)reduced to an intensely colored formazan derivative. In case of MTT, the formed formazan is crystalline and needs to be dissolved before colorimetric quantification. MTS needs an intermediate electron acceptor (PMS) for its efficient reduction into a soluble formazan end product and is used for suspension cell lines. […]

Experiment [2] has as its system COR-L23 cells. The experiment is described as follows: Cell proliferation assay (MTT), COR-L23 parental. It counts as cell-based. As to conditions: Homo sapiens, 96 h, 4-day incubation, mean ± SE of at least two experiments, read-out: Sensitivity to cell killing, IC50. The protocol:
as §1, §2, §3

Experiment [3] concerns K562A7 parental leukemia cells. The experiment is described as follows: Cell proliferation assay (MTS/PMS), K562A7 parental. The experiment is classed as cell-based. The following applies: Homo sapiens, 96 h, 4-day incubation, mean ± SE of at least two experiments, read-out: Sensitivity to cell killing, IC50. The protocol:
as §1, §2, §3

For experiment [4], the system named is COR-L23/R cells. Briefly: Cell proliferation assay (MTT), COR-L23/R Multidrug Resistant Protein overexpressing. It counts as cell-based, human. The method, then:
as §1, §2, §3

As for `COc1cccc2c1C(=O)c1c(O)c3c(c(O)c1C2=O)C[C@@](O)(C(=O)CO)C[C@@H]3O[C@H]1C[C@H](N)[C@H](O)[C@H](C)O1` [Adriamycin, adriamycin], the IC50 in experiment [1] (Homo sapiens, 96 h, K562/C1,000+ P-glycoprotein overexpressing cells, 4-day incubation, mean ± SE of at least two experiments, read-out: Sensitivity to cell killing, IC50) stood at 7830 nM; in experiment [2], 36.6 ± 19.1 nM; in experiment [3], 26.8 ± 5.82 nM; in experiment [4] (Homo sapiens, 96 h, COR-L23/R Multidrug Resistant Protein overexpressing cells, 4-day incubation, mean ± SE of at least two experiments, read-out: Sensitivity to cell killing, IC50), 676 ± 261 nM. In addition, the “Resistance to cell killing as compared to parental cell line” value in experiment [1] (K562/C1,000+ versus parental K562A7) was 250 fold; in experiment [4] (COR-L23/R versus parental COR-L23), 20 fold.
